Source: patent US20210045385A1, “PYRIDAZINONE-SUBSTITUTED KETOXIMES AS HERBICIDES” (FMC Corporation, priority 2018, published 2021)

How the values were obtained:
Format in all cases: in vivo
[1] = tested on: duck salad (Heteranthera limosa); assay: Test D flooded paddy test, visual plant response rating; settings: 250 g ai/ha, scale 0 to 100 (0 no effect, 100 complete control), 13 to 15 d
Procedure, shortened: (§1)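 Visual injury scores, 0 (no effect) to 100 (complete control), were assigned after 13 to 15 d in the greenhouse by comparison with controls. Test compounds had been added to paddy water covering soil by 3 cm at the 2-leaf stage.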

rice (Oryza sativa) = assay: as above; settings: 250 g ai/ha, scale 0 to 100 (0 no effect, 100 complete control), 13 to 15 d
Procedure, shortened: as §1

[2] = tested on: barnyardgrass (Echinochloa crus-galli); assay: as above; settings: 250 g ai/ha, scale 0 to 100 (0 no effect, 100 complete control), 13 to 15 d
Procedure, shortened: as §1

[3] = tested on: sedge umbrella (small-flower umbrella sedge, Cyperus difformis); assay: as above; settings: 250 g ai/ha, scale 0 to 100 (0 no effect, 100 complete control), 13 to 15 d
Procedure, shortened: as §1

[4] = tested on: Italian ryegrass (Lolium mutiflorum); assay: Test C postemergence, visual plant response rating
Procedure, shortened: (§2)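 Visual injury on a 0 (no effect) to 100 (complete control) scale versus untreated controls, scored approximately 10 d after treatment under greenhouse conditions. Treatments used surfactant-containing non-phytotoxic solvent formulations, sprayed onto loam–sand soil preemergence or onto one- to two-leaf plants 2–10 cm tall postemergence.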

corn (Zea mays) = assay: Test C postemergence, visual plant response rating
Procedure, shortened: as §2

[5] = tested on: foxtail, giant (giant foxtail, Setaria faberi); assay: Test C postemergence, visual plant response rating
Procedure, shortened: as §2

[6] = tested on: barnyardgrass (Echinochloa crus-galli); assay: Test C postemergence, visual plant response rating
Procedure, shortened: as §2

[7] = tested on: pigweed (Amaranthus retroflexus); assay: Test C postemergence, visual plant response rating
Procedure, shortened: as §2

[8] = tested on: ragweed (common ragweed, Ambrosia artemisiifolia); assay: Test C postemergence, visual plant response rating
Procedure, shortened: as §2

[9] = tested on: blackgrass (Alopecurus myosuroides); assay: Test C postemergence, visual plant response rating
Procedure, shortened: as §2

kochia (Bassia scoparia) [10] = assay: Test C postemergence, visual plant response rating
Procedure, shortened: as §2

[11] = tested on: galium (catchweed bedstraw, Galium aparine); assay: Test C postemergence, visual plant response rating
Procedure, shortened: as §2

[12] = tested on: wheat (Triticum aestivum); assay: Test C postemergence, visual plant response rating
Procedure, shortened: as §2

[13] = tested on: Italian ryegrass (Lolium mutiflorum); assay: Test C preemergence, visual plant response rating; settings: Test C, 0 is no effect, 100 is complete control
Procedure, shortened: as §2

[14] = tested on: foxtail, giant (giant foxtail, Setaria faberi); assay: Test C preemergence, visual plant response rating; settings: Test C, 0 is no effect, 100 is complete control
Procedure, shortened: as §2

[15] = tested on: barnyardgrass (Echinochloa crus-galli); assay: Test C preemergence, visual plant response rating; settings: Test C, 0 is no effect, 100 is complete control
Procedure, shortened: as §2

[16] = tested on: pigweed (Amaranthus retroflexus); assay: Test C preemergence, visual plant response rating; settings: Test C, 0 is no effect, 100 is complete control
Procedure, shortened: as §2

[17] = tested on: ragweed (common ragweed, Ambrosia artemisiifolia); assay: Test C preemergence, visual plant response rating; settings: Test C, 0 is no effect, 100 is complete control
Procedure, shortened: as §2

kochia (Bassia scoparia) [18] = assay: Test C preemergence, visual plant response rating; settings: Test C, 0 is no effect, 100 is complete control
Procedure, shortened: as §2

[19] = Test C, postemergence, 125 g ai/ha

| SMILES | Plant response rating, Ducksalad (Flood) [1] | Plant response rating, Rice (Flood) (rice (Oryza sativa)) | Plant response rating, Barnyardgrass (Flood) [2] | Plant response rating, Sedge, Umbrella (Flood) [3] | Ryegrass, Italian plant response rating (0 to 100 scale) ([4]; Postemergence, 31 g ai/ha) | Ryegrass, Italian plant response rating (0 to 100 scale) [4, 19] | Corn plant response rating (0 to 100 scale) (corn (Zea mays); Postemergence, 31 g ai/ha) | Corn plant response rating (0 to 100 scale) (corn (Zea mays); [19]) | Foxtail, Giant plant response rating (0 to 100 scale) ([5]; Postemergence, 31 g ai/ha) | Foxtail, Giant plant response rating (0 to 100 scale) [5, 19] | Barnyardgrass plant response rating (0 to 100 scale) ([6]; Postemergence, 31 g ai/ha) | Barnyardgrass plant response rating (0 to 100 scale) [6, 19] | Pigweed plant response rating (0 to 100 scale) ([7]; Postemergence, 31 g ai/ha) | Pigweed plant response rating (0 to 100 scale) [7, 19] | Ragweed plant response rating (0 to 100 scale) ([8]; Postemergence, 31 g ai/ha) | Ragweed plant response rating (0 to 100 scale) [8, 19] | Blackgrass plant response rating (0 to 100 scale) ([9]; Postemergence, 31 g ai/ha) | Blackgrass plant response rating (0 to 100 scale) [9, 19] | Kochia plant response rating (0 to 100 scale) (kochia (Bassia scoparia) [10]; Postemergence, 31 g ai/ha) | Kochia plant response rating (0 to 100 scale) (kochia (Bassia scoparia) [10]; [19]) | further results |
| --- | --- | --- | --- | --- | --- | --- | --- | --- | --- | --- | --- | --- | --- | --- | --- | --- | --- | --- | --- | --- | --- |
| CO/N=C(/c1cccc(/C=C\Cl)c1)c1c(O)c(C)nn(C)c1=O [Compound 287] | 0 | 0 | 0 | 0 | 20 | 80 | 0 | 10 | 10 | 70 | 0 | 60 | 10 | 20 | 20 | 50 | 10 | 30 | 0 | 10 | Galium plant response rating (0 to 100 scale) ([11]; Postemergence, 31 g ai/ha): 50; Galium plant response rating (0 to 100 scale) [11, 19]: 70; Wheat plant response rating (0 to 100 scale) ([12]; Postemergence, 31 g ai/ha): 0; Wheat plant response rating (0 to 100 scale) [12, 19]: 0; Ryegrass, Italian plant response rating (0 to 100 scale) ([13]; 31 g ai/ha): 50; Ryegrass, Italian plant response rating (0 to 100 scale) ([13]; 125 g ai/ha): 90; Foxtail, Giant plant response rating (0 to 100 scale) ([14]; 31 g ai/ha): 10; Foxtail, Giant plant response rating (0 to 100 scale) ([14]; 125 g ai/ha): 40; Barnyardgrass plant response rating (0 to 100 scale) ([15]; 31 g ai/ha): 40; Barnyardgrass plant response rating (0 to 100 scale) ([15]; 125 g ai/ha): 90; Pigweed plant response rating (0 to 100 scale) ([16]; 31 g ai/ha): 0; Pigweed plant response rating (0 to 100 scale) ([16]; 125 g ai/ha): 0; Ragweed plant response rating (0 to 100 scale) ([17]; 31 g ai/ha): 0; Ragweed plant response rating (0 to 100 scale) ([17]; 125 g ai/ha): 20; Kochia plant response rating (0 to 100 scale) (kochia (Bassia scoparia) [18]; 31 g ai/ha): 0; Kochia plant response rating (0 to 100 scale) (kochia (Bassia scoparia) [18]; 125 g ai/ha): 0 |
| CO/N=C(/c1ccc(Cl)c(Cl)c1)c1c(O)c(C)nn(C)c1=O [Compound 216] | 0 | 0 | 0 | 0 | 0 | 0 | 0 | 0 | 0 | 0 | 0 | 10 | 0 | 20 | 10 | 40 | 0 | 0 | 20 | 50 | Galium plant response rating (0 to 100 scale) ([11]; Postemergence, 31 g ai/ha): 30; Galium plant response rating (0 to 100 scale) [11, 19]: 80; Wheat plant response rating (0 to 100 scale) ([12]; Postemergence, 31 g ai/ha): 0; Wheat plant response rating (0 to 100 scale) [12, 19]: 0; Ryegrass, Italian plant response rating (0 to 100 scale) ([13]; 31 g ai/ha): 0; Ryegrass, Italian plant response rating (0 to 100 scale) ([13]; 125 g ai/ha): 10; Foxtail, Giant plant response rating (0 to 100 scale) ([14]; 31 g ai/ha): 0; Foxtail, Giant plant response rating (0 to 100 scale) ([14]; 125 g ai/ha): 0; Barnyardgrass plant response rating (0 to 100 scale) ([15]; 31 g ai/ha): 50; Barnyardgrass plant response rating (0 to 100 scale) ([15]; 125 g ai/ha): 0; Pigweed plant response rating (0 to 100 scale) ([16]; 31 g ai/ha): 0; Pigweed plant response rating (0 to 100 scale) ([16]; 125 g ai/ha): 0; Ragweed plant response rating (0 to 100 scale) ([17]; 31 g ai/ha): 0; Ragweed plant response rating (0 to 100 scale) ([17]; 125 g ai/ha): 0; Kochia plant response rating (0 to 100 scale) (kochia (Bassia scoparia) [18]; 31 g ai/ha): 0; Kochia plant response rating (0 to 100 scale) (kochia (Bassia scoparia) [18]; 125 g ai/ha): 0 |
| C#CCO/N=C(/c1cc(Cl)cc(Br)c1)c1c(O)c(C)nn(C)c1=O [Compound 291] | 25 | 0 | 0 | 45 | 90 | 100 | 20 | 30 | 40 | 80 | 20 | 70 | 30 | 60 | 100 | 100 | 0 | 70 | 50 | 100 | Galium plant response rating (0 to 100 scale) ([11]; Postemergence, 31 g ai/ha): 100; Galium plant response rating (0 to 100 scale) [11, 19]: 100; Wheat plant response rating (0 to 100 scale) ([12]; Postemergence, 31 g ai/ha): 30; Wheat plant response rating (0 to 100 scale) [12, 19]: 90; Ryegrass, Italian plant response rating (0 to 100 scale) ([13]; 31 g ai/ha): 10; Ryegrass, Italian plant response rating (0 to 100 scale) ([13]; 125 g ai/ha): 100; Foxtail, Giant plant response rating (0 to 100 scale) ([14]; 31 g ai/ha): 50; Foxtail, Giant plant response rating (0 to 100 scale) ([14]; 125 g ai/ha): 100; Barnyardgrass plant response rating (0 to 100 scale) ([15]; 31 g ai/ha): 0; Barnyardgrass plant response rating (0 to 100 scale) ([15]; 125 g ai/ha): 100; Pigweed plant response rating (0 to 100 scale) ([16]; 31 g ai/ha): 10; Pigweed plant response rating (0 to 100 scale) ([16]; 125 g ai/ha): 80; Ragweed plant response rating (0 to 100 scale) ([17]; 31 g ai/ha): 60; Ragweed plant response rating (0 to 100 scale) ([17]; 125 g ai/ha): 100; Kochia plant response rating (0 to 100 scale) (kochia (Bassia scoparia) [18]; 31 g ai/ha): 0; Kochia plant response rating (0 to 100 scale) (kochia (Bassia scoparia) [18]; 125 g ai/ha): 90 |
